Experimental data as given in PubChem BioAssay (NCI).
Several values for one entry are separate records, joined by “and”; a condition that tells them apart may be missing. Equal entries are not always repeated.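 Results reflect a 48-hour exposure of cells in 96-well plates to compound at five concentrations. The concentration for 50% growth inhibition is given as GI50. TGI: total growth inhibition.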

Legend:
Experiment in all cases: inhibition of tumour cell growth, NCI panel, 48 h
786-0 renal = system: 786-0 renal
CAKI-1 renal = system: CAKI-1 renal
HCC-2998 colon = system: HCC-2998 colon
HCT-15 colon = system: HCT-15 colon
LOX IMVI melanoma = system: LOX IMVI melanoma
RPMI-8226 leukemia = system: RPMI-8226 leukemia
SNB-19 CNS = system: SNB-19 CNS
SR leukemia = system: SR leukemia
UACC-257 melanoma = system: UACC-257 melanoma
UO-31 renal = system: UO-31 renal

| Compound | TGI (786-0 renal) | TGI (CAKI-1 renal) | TGI (HCC-2998 colon) | TGI (HCT-15 colon) | TGI (LOX IMVI melanoma) | TGI (RPMI-8226 leukemia) | TGI (SNB-19 CNS) | TGI (SR leukemia) [µM] | TGI (UACC-257 melanoma) | TGI (UO-31 renal) | GI50 (786-0 renal) [µM] | GI50 (CAKI-1 renal) [µM] | GI50 (HCC-2998 colon) [µM] | GI50 (HCT-15 colon) [µM] | GI50 (LOX IMVI melanoma) [µM] | GI50 (RPMI-8226 leukemia) [µM] | GI50 (SNB-19 CNS) [µM] | GI50 (SR leukemia) [µM] | GI50 (UACC-257 melanoma) [µM] | GI50 (UO-31 renal) [µM] |
| --- | --- | --- | --- | --- | --- | --- | --- | --- | --- | --- | --- | --- | --- | --- | --- | --- | --- | --- | --- | --- |
| CSc1nc(SC)c2c(C#N)[nH]nc2n1 | > 100 µM | > 100 µM | > 100 µM | > 100 µM | > 100 µM | > 100 µM | > 100 µM | > 100 | > 100 µM | > 100 µM |  |  |  |  |  |  |  |  |  |  |
| CN1CCN(c2ccc(Nc3cc(-c4cccc(-n5ccc6cc(C7CC7)cc(F)c6c5=O)c4CO)cn(C)c3=O)nc2)CC1 | 4.44 µM | 10.8 µM | 35.8 µM | 26.1 µM | 12.7 µM | 19 µM | 15.4 µM | 5.27 | 5.03 µM | 3.46 µM | 2.01 | 2.66 | 10.4 | 5.11 | 3.4 | 3.8 | 3.15 | 1.79 | 2.28 | 1.72 |
| CC12CCC(=O)C[C@H]1CCC(OC=O)C2Br (stereo partly drawn) | > 100 µM | > 100 µM | > 100 µM | > 100 µM | > 100 µM | > 100 µM | > 100 µM | > 100 | > 100 µM | > 100 µM |  |  |  |  |  |  |  |  |  |  |
| CCn1c(O)c(/C=N/NC(=O)C(C)c2ccc(CC(C)C)cc2)sc1=S (stereo not drawn) | > 40.9 µM | > 33.7 µM | 13.7 µM | > 35.4 µM | > 36.1 µM | 4.83 µM | > 41.8 µM | > 100 | > 74.9 µM | 16.8 µM | 0.606 | 0.331 | 0.839 | 0.379 | 0.594 | 0.425 | 0.433 | 0.198 | 3.16 | 0.483 |
| CCCC(=O)Nc1cn(COC)c(C(=O)N2C[C@@H]3C[C@]34C2=CC(=O)c2[nH]cc(C)c24)n1 | 14.8 µM and 10.1 µM | 12.1 µM and 16.2 µM | 13.1 µM and 19.1 µM | 50 µM and 38.9 µM | 21.9 µM and 53.8 µM | 41.5 µM and 6.75 µM | 50 µM and 30.9 µM | 0.488 | 23.5 µM and 27.7 µM | 30.3 µM and 57.3 µM | 3.14 | 4.65 | 6.23 |  |  | 1.87 | 10.7 |  | 13.3 | 16.9 |
| CCC[CH2][Sn]([CH2]CCC)([O]C(=O)c1ccc(OC)c(OC)c1OC)[O][Sn]([CH2]CCC)([CH2]CCC)[O]C(=O)c1ccc(OC)c(OC)c1OC | 0.456 µM | 0.506 µM | 1.5 µM | 0.526 µM | 0.292 µM | 0.846 µM | 0.635 µM | > 100 | 0.549 µM | 1.18 µM | 0.176 | 0.0961 | 0.341 | 0.175 | 0.134 | 0.104 | 0.285 | 0.315 | 0.217 | 0.546 |
| COc1cc(N=Nc2ccc(O)c3ncccc23)c2ncccc2c1 | 24.2 µM | > 100 µM | > 100 µM | > 100 µM | > 100 µM | > 100 µM | > 100 µM | > 100 | > 100 µM | 25.3 µM | 3.43 | 1.83 | 3.65 | 0.923 | 2.13 | 2.97 | 4.11 | 2.2 | 10.9 | 2.56 |
| O=C(Nc1ccc(Br)cc1F)c1cc(Cl)ccc1O | 7.62 µM | 2.85 µM | 12.7 µM | 10.5 µM | 3.76 µM | 1.88 µM | > 100 µM | > 30.1 | 4.82 µM | 2.36 µM | 2.54 | 0.319 | 2.79 | 0.972 | 0.501 | 0.342 | 0.418 | 0.541 | 0.731 | 0.207 |
| C[C@@H]1C[C@@H]([C@@H](CC2CC(=O)NC(=O)C2)OC(=O)CC(=O)c2ccccc2)C(=O)[C@@H](C)C1 | 13.2 µM |  | > 26.5 µM | > 100 µM | > 100 µM | > 100 µM | > 100 µM | > 100 | 13 µM | 5.1 µM | 0.293 | 0.252 | 0.373 | 0.809 | 0.646 | 4.03 | 0.774 | 2.01 | 0.358 | 0.159 |
| COc1ccc2nc3ccccc3c(NCc3ccc(F)cc3)c2c1 | 6.82 µM | 7.05 µM | 2.1 µM | 5.23 µM | 1.71 µM | 3.06 µM | 7.62 µM | 5.75 | 6.68 µM | 3.96 µM | 1.87 | 1.73 | 1 | 1.54 | 0.841 | 1.24 | 2.04 | 1.79 | 1.8 | 0.962 |
| CC(=O)Nc1ccc(-c2csc(Nc3cccc(-c4csc(C)n4)c3)n2)cc1 | 18.2 µM | 8.75 µM | 8.98 µM | > 27.4 µM | 10.1 µM |  | > 50 µM | > 50 | 21.5 µM | 22.8 µM | 2.03 | 1.61 | 0.00657 | 0.289 | 0.375 | 0.789 | 1.6 | 0.787 | 4.63 | 6.73 |
| O=C(Cc1ccc(F)c(Cl)c1)Nc1cc(C2(C(F)(F)F)CC2)nn1CC1CCCCC1 | > 15 µM | 8.79 µM | > 15 µM | > 15 µM | > 15 µM | 9.43 µM | > 15 µM | 11.4 | 11.2 µM | 9.65 µM | 4.34 | 2.93 | 4.45 | 3.87 | 4.58 | 3.06 | 4.78 | 3.73 | 3.38 | 2.9 |
| COc1ccc(-c2ccc(=O)oc2C#Cc2cc(OC)c(OC)c(OC)c2)cc1O | > 100 µM | > 100 µM | > 100 µM | > 100 µM | > 100 µM |  | > 100 µM | > 100 | > 37.3 µM |  | 1.18 | 0.621 | 0.265 | 0.324 | 0.399 | 0.23 | 0.612 | 0.0708 | 0.857 | 0.585 |
